Reference: patent US9096832B2, “Differentiation of human embryonic stem cells” (LifeScan, Inc., priority 2007, dated 2015)

Tested on: H9 embryonic stem cells
Test: Microarray analysis of definitive endoderm stage cells on […] or MEFs +/- Wnt-3a (Table VI)
Assay type: cell-based, human
Conditions: log format
[1] = DE treatment in low serum on MATRIGEL
[2] = DE treatment in low serum on MEFS

Experimental: Controls for each group included cells plated on [sequence]—coated dishes and cultured in MEF-conditioned medium or cells plated on MEFs and cultured in ES medium. All groups contained three biological replicates and each biological replicate was repeated on two separate gene chips.
Sample preparation, hybridization, and image analysis were performed according to the Affymetrix Human Genome U133 Plus 2.0 Array. Following normalization and a log transformation, data analysis was performed using OmniViz® software (MA) and [sequence] […] Significant differences in gene expression between the samples were evaluated using analysis of variance and an F-test with adjusted P-value (Benjamini and Hochberg correction) of less-than or equal to 0.05. Only genes with a present call in at least one group were included in the analysis.

In the case of “Activin A: activin A (a member of the TGFβ superfamily), R&D Systems; 'w/o wnt' in Table VII = 100 ng/ml Activin A without Wnt3a”, the “mean normalized intensity: DKFZP566K1924 protein” value [1] was 2.882, the “mean normalized intensity: ESTs, Moderately similar to ALU2_HUMAN ALU SUBFAMILY SB SEQUENCE CONTAMINATION WARNING ENTRY (H. sapiens)” value [1] was 4.241 and the “mean normalized intensity: H. sapiens mRNA for B-HLH DNA binding protein.” value [1] was 5.43. The “mean normalized intensity: Homo sapiens BCL2-interacting killer (apoptosis-inducing) (BIK), mRNA.” value [1] was 4.3, the “mean normalized intensity: Homo sapiens Charot-Leyden crystal protein (CLC), mRNA.” value [1] was 3.301 and the “mean normalized intensity: Homo sapiens HES-related repressor protein 1 HERP1 mRNA, complete cds.” value [1] was 2.806. The “mean normalized intensity: Homo sapiens HSPC156 protein (HSPC156), mRNA.” value [1] was 0.7862, the “mean normalized intensity: Homo sapiens KIAA0469 gene product (KIAA0469), mRNA.” value [1] was 4.031 and the “mean normalized intensity: Homo sapiens PNAS-123 mRNA, complete cds” value [1] was 1.597. For the same substance, the “mean normalized intensity: Homo sapiens Wilms tumor 1 (WT1), transcript variant D, mRNA.” value [1] was 2.405, the “mean normalized intensity: Homo sapiens cDNA FLJ11398 fis, clone HEMBA1000637.” value [1] was 2.5268 and the “mean normalized intensity: Homo sapiens cDNA: FLJ22547 fis, clone HSI00356” value [1] was 4.294. The “mean normalized intensity: Homo sapiens cadherin 6, type 2, K-cadherin (fetal kidney) (CDH6), mRNA.” value [1] was 0.8248, the “mean normalized intensity: Homo sapiens chorionic somatomammotropin hormone 2 (CSH2), transcript variant 1, mRNA.” value [1] was 1.124 and the “mean normalized intensity: Homo sapiens chorionic somatomammotropin hormone 2 (CSH2), transcript variant 4, mRNA.” value [1] was 0.8122. The “mean normalized intensity: Homo sapiens galanin receptor 1 (GALR1), mRNA.” value [1] was 2.507, the “mean normalized intensity: Homo sapiens growth hormone 2 (GH2), transcript variant 2, mRNA.” value [1] was 0.9226 and the “mean normalized intensity: Homo sapiens hypothetical protein FLJ20075 (FLJ20075), mRNA.” value [1] was −0.3592. For the same substance, the “mean normalized intensity: Homo sapiens mRNA for SCCA2b, complete cds.” value [1] was 3.329, the “mean normalized intensity: Homo sapiens mRNA; cDNA DKFZp586P1124 (from clone DKFZp586P1124)” value [1] was 0.4856 and the “mean normalized intensity: Homo sapiens methyl-CpG binding protein MBD2 (MBD2) mRNA, complete cds.” value [1] was 0.4906. For the same substance, the “mean normalized intensity: Homo sapiens tachykinin, precursor 1 (TAC1), transcript variant beta, mRNA.” value [1] was 2.773, the “mean normalized intensity: Homo sapiens testis expressed sequence 14 (TEX14), mRNA.” value [1] was 3.512 and the “mean normalized intensity: Homo sapiens, Similar to LIM homeobox protein 8, clone IMAGE: 4839343, mRNA.” value [1] was −0.06288. The “mean normalized intensity: Homo sapiens, Similar to cadherin 6, type 2, K-cadherin (fetal kidney), clone MGC: 1470, mRNA, complete cds.” value [1] was 2.547, the “mean normalized intensity: Homo sapiens, Similar to hypothetical protein FLJ10058, clone MGC: 34305 IMAGE: 5167647, mRNA, complete cds.” value [1] was 1.698 and the “mean normalized intensity: Homo sapiens, Similar to hypothetical protein FLJ32001, clone MGC: 39559 IMAGE: 4828136, mRNA, complete cds.” value [1] was 0.5207. The “mean normalized intensity: Homo sapiens, clone IMAGE: 4067166, mRNA” value [1] was 0.1959, the “mean normalized intensity: Homo sapiens, clone IMAGE: 4828836, mRNA.” value [1] was 0.9729 and the “mean normalized intensity: Homo sapiens, serine (or cysteine) proteinase inhibitor, clade B (ovalbumin), member 3, clone MGC: 12244, mRNA, complete cds.” value [1] was 1.969. The “mean normalized intensity: Human mRNA upregulated during camptothecin-induced apoptosis of U937 cells.” value [1] was 0.4945, the “mean normalized intensity: Human platelet-derived growth factor alpha-receptor (PDGFRA) mRNA, exons 13-16” value [1] was 2.445 and the “mean normalized intensity: KIAA1151 protein” value [1] was 0.6425. For the same substance, the “mean normalized intensity: caldesmon 1” value [1] was 7.092, the “mean normalized intensity: nuclear receptor subfamily 1, group I, member 3” value [1] was 1.779 and the “mean normalized intensity: ESTs” value (DE treatment in low serum on MATRIGEL, gene line r2006) was 1.5857. The “mean normalized intensity: ESTs” value (DE treatment in low serum on MATRIGEL, gene line r2025) was 1.531, the “mean normalized intensity: ESTs” value (DE treatment in low serum on MATRIGEL, gene line r2032) was 0.1336 and the “mean normalized intensity: paternally expressed 3” value (DE treatment in low serum on MATRIGEL, gene line r2033) was 2.876. For the same substance, the “mean normalized intensity: ESTs” value (DE treatment in low serum on MATRIGEL, gene line r2038) was 3.262, the “mean normalized intensity: paternally expressed 3” value (DE treatment in low serum on MATRIGEL, gene line r2093) was 2.874 and the “mean normalized intensity: ESTs” value (DE treatment in low serum on MATRIGEL, gene line r2134) was −1.3795. For the same substance, the “mean normalized intensity: ESTs” value (DE treatment in low serum on MATRIGEL, gene line r2148) was 4.454, the “mean normalized intensity: DKFZP566K1924 protein” value [2] was 1.391 and the “mean normalized intensity: ESTs, Moderately similar to ALU2_HUMAN ALU SUBFAMILY SB SEQUENCE CONTAMINATION WARNING ENTRY (H. sapiens)” value [2] was 3.874. The “mean normalized intensity: H. sapiens mRNA for B-HLH DNA binding protein.” value [2] was 3.451, the “mean normalized intensity: Homo sapiens BCL2-interacting killer (apoptosis-inducing) (BIK), mRNA.” value [2] was 3.562 and the “mean normalized intensity: Homo sapiens Charot-Leyden crystal protein (CLC), mRNA.” value [2] was 2.1096. The “mean normalized intensity: Homo sapiens HES-related repressor protein 1 HERP1 mRNA, complete cds.” value [2] was 2.406, the “mean normalized intensity: Homo sapiens HSPC156 protein (HSPC156), mRNA.” value [2] was 1.296 and the “mean normalized intensity: Homo sapiens KIAA0469 gene product (KIAA0469), mRNA.” value [2] was 2.565. For the same substance, the “mean normalized intensity: Homo sapiens PNAS-123 mRNA, complete cds” value [2] was 1.847, the “mean normalized intensity: Homo sapiens Wilms tumor 1 (WT1), transcript variant D, mRNA.” value [2] was −2.435 and the “mean normalized intensity: Homo sapiens cDNA FLJ11398 fis, clone HEMBA1000637.” value [2] was 1.849. For the same substance, the “mean normalized intensity: Homo sapiens cDNA: FLJ22547 fis, clone HSI00356” value [2] was 2.095, the “mean normalized intensity: Homo sapiens cadherin 6, type 2, K-cadherin (fetal kidney) (CDH6), mRNA.” value [2] was −0.8763 and the “mean normalized intensity: Homo sapiens chorionic somatomammotropin hormone 2 (CSH2), transcript variant 1, mRNA.” value [2] was 2.616. The “mean normalized intensity: Homo sapiens chorionic somatomammotropin hormone 2 (CSH2), transcript variant 4, mRNA.” value [2] was 2.218, the “mean normalized intensity: Homo sapiens galanin receptor 1 (GALR1), mRNA.” value [2] was −0.338 and the “mean normalized intensity: Homo sapiens growth hormone 2 (GH2), transcript variant 2, mRNA.” value [2] was 1.4679. For the same substance, the “mean normalized intensity: Homo sapiens hypothetical protein FLJ20075 (FLJ20075), mRNA.” value [2] was −0.06528, the “mean normalized intensity: Homo sapiens mRNA for SCCA2b, complete cds.” value [2] was 0.568 and the “mean normalized intensity: Homo sapiens mRNA; cDNA DKFZp586P1124 (from clone DKFZp586P1124)” value [2] was −3.094. The “mean normalized intensity: Homo sapiens methyl-CpG binding protein MBD2 (MBD2) mRNA, complete cds.” value [2] was −1.702, the “mean normalized intensity: Homo sapiens tachykinin, precursor 1 (TAC1), transcript variant beta, mRNA.” value [2] was 1.483 and the “mean normalized intensity: Homo sapiens testis expressed sequence 14 (TEX14), mRNA.” value [2] was −1.3824. The “mean normalized intensity: Homo sapiens, Similar to LIM homeobox protein 8, clone IMAGE: 4839343, mRNA.” value [2] was −1.11, the “mean normalized intensity: Homo sapiens, Similar to cadherin 6, type 2, K-cadherin (fetal kidney), clone MGC: 1470, mRNA, complete cds.” value [2] was 2.134 and the “mean normalized intensity: Homo sapiens, Similar to hypothetical protein FLJ10058, clone MGC: 34305 IMAGE: 5167647, mRNA, complete cds.” value [2] was 0.2156. For the same substance, the “mean normalized intensity: Homo sapiens, Similar to hypothetical protein FLJ32001, clone MGC: 39559 IMAGE: 4828136, mRNA, complete cds.” value [2] was 1.269, the “mean normalized intensity: Homo sapiens, clone IMAGE: 4067166, mRNA” value [2] was 0.277 and the “mean normalized intensity: Homo sapiens, clone IMAGE: 4828836, mRNA.” value [2] was −1.484. The “mean normalized intensity: Homo sapiens, serine (or cysteine) proteinase inhibitor, clade B (ovalbumin), member 3, clone MGC: 12244, mRNA, complete cds.” value [2] was −1.566, the “mean normalized intensity: Human mRNA upregulated during camptothecin-induced apoptosis of U937 cells.” value [2] was −0.1892 and the “mean normalized intensity: Human platelet-derived growth factor alpha-receptor (PDGFRA) mRNA, exons 13-16” value [2] was 2.905. The “mean normalized intensity: KIAA1151 protein” value [2] was 1.009, the “mean normalized intensity: caldesmon 1” value [2] was 5.634 and the “mean normalized intensity: nuclear receptor subfamily 1, group I, member 3” value [2] was −0.1968. The “mean normalized intensity: ESTs” value (DE treatment in low serum on MEFS, gene line r2006) was −1.3, the “mean normalized intensity: ESTs” value (DE treatment in low serum on MEFS, gene line r2025) was 1.373 and the “mean normalized intensity: ESTs” value (DE treatment in low serum on MEFS, gene line r2032) was −1.566. For the same substance, the “mean normalized intensity: paternally expressed 3” value (DE treatment in low serum on MEFS, gene line r2033) was −0.0118, the “mean normalized intensity: ESTs” value (DE treatment in low serum on MEFS, gene line r2038) was 1.5682 and the “mean normalized intensity: paternally expressed 3” value (DE treatment in low serum on MEFS, gene line r2093) was −3.492.
